Measurements: PubChem BioAssay AID1259407 (Chemical Carcinogenesis Research Information System (CCRIS), 2018)
Active and inactive are the calls of the source. The rule behind the calls is not given here.

System: CCRIS mutagenicity, Ames/micronucleus/aberration tests
Assay: CCRIS mutagenicity studies
[1] = Test System: AMES SALMONELLA TYPHIMURIUM, Strain/Indicator: TA98, Metabolic Activation: NONE, Method: PREINCUBATION
[2] = Test System: AMES SALMONELLA TYPHIMURIUM, Strain/Indicator: TA100, Metabolic Activation: NONE, Method: PREINCUBATION
[3] = Test System: AMES SALMONELLA TYPHIMURIUM, Strain/Indicator: TA98, Metabolic Activation: NONE, Method: STANDARD PLATE
[4] = Test System: AMES SALMONELLA TYPHIMURIUM, Strain/Indicator: TA98, Metabolic Activation: RAT, LIVER, S-9, AROCLOR 1254, Method: STANDARD PLATE
[5] = Test System: AMES SALMONELLA TYPHIMURIUM, Strain/Indicator: TA100, Metabolic Activation: NONE, Method: STANDARD PLATE
[6] = Test System: AMES SALMONELLA TYPHIMURIUM, Strain/Indicator: TA100, Metabolic Activation: RAT, LIVER, S-9, AROCLOR 1254, Method: STANDARD PLATE

For `CCn1c(N)nc2c3cccnc3cc(C)c21`, the mutagenic call (Test System: AMES SALMONELLA TYPHIMURIUM, Strain/Indicator: TA98, Metabolic Activation: RAT, LIVER, S-9, AROCLOR 1254, Method: PREINCUBATION) was “active; positive”.

In the case of `C=CCC1(C(C)C#CCC)C(=O)N=C(O)N(C)C1=O` (stereo not given), the mutagenic call (Test System: AMES SALMONELLA TYPHIMURIUM, Strain/Indicator: TA97, Metabolic Activation: HAMSTER, LIVER, S-9, AROCLOR 1254 (10 OR 30%), Method: PREINCUBATION) is reported as “inactive; negative”, the mutagenic call (Test System: AMES SALMONELLA TYPHIMURIUM, Strain/Indicator: TA97, Metabolic Activation: NONE, Method: PREINCUBATION) is reported as “inactive; negative” and the mutagenic call (Test System: AMES SALMONELLA TYPHIMURIUM, Strain/Indicator: TA97, Metabolic Activation: RAT, LIVER, S-9, AROCLOR 1254 (10 OR 30%), Method: PREINCUBATION) is reported as “inactive; negative”. The mutagenic call (Test System: AMES SALMONELLA TYPHIMURIUM, Strain/Indicator: TA98, Metabolic Activation: HAMSTER, LIVER, S-9, AROCLOR 1254 (10 OR 30%), Method: PREINCUBATION) was “inactive; negative”, the mutagenic call [1] was “inactive; negative” and the mutagenic call (Test System: AMES SALMONELLA TYPHIMURIUM, Strain/Indicator: TA98, Metabolic Activation: RAT, LIVER, S-9, AROCLOR 1254 (10 OR 30%), Method: PREINCUBATION) was “inactive; negative”. For the same molecule, the mutagenic call (Test System: AMES SALMONELLA TYPHIMURIUM, Strain/Indicator: TA100, Metabolic Activation: HAMSTER, LIVER, S-9, AROCLOR 1254 (10 OR 30%), Method: PREINCUBATION) was “inactive; negative”, the mutagenic call [2] was “inactive; negative” and the mutagenic call (Test System: AMES SALMONELLA TYPHIMURIUM, Strain/Indicator: TA100, Metabolic Activation: RAT, LIVER, S-9, AROCLOR 1254 (10 OR 30%), Method: PREINCUBATION) was “inactive; negative”. For the same molecule, the mutagenic call (Test System: AMES SALMONELLA TYPHIMURIUM, Strain/Indicator: TA1535, Metabolic Activation: HAMSTER, LIVER, S-9, AROCLOR 1254 (10 OR 30%), Method: PREINCUBATION) was “inactive; negative”, the mutagenic call (Test System: AMES SALMONELLA TYPHIMURIUM, Strain/Indicator: TA1535, Metabolic Activation: NONE, Method: PREINCUBATION) was “inactive; negative” and the mutagenic call (Test System: AMES SALMONELLA TYPHIMURIUM, Strain/Indicator: TA1535, Metabolic Activation: RAT, LIVER, S-9, AROCLOR 1254 (10 OR 30%), Method: PREINCUBATION) was “inactive; negative”.

With `N#CC(Cl)Cl` the mutagenic call [3] was “active; positive”, the mutagenic call [4] was “active; positive” and the mutagenic call (Test System: AMES SALMONELLA TYPHIMURIUM, Strain/Indicator: TA98, Metabolic Activation: RAT, LIVER, S-9, PHENOBARBITAL AND 5,6-BENZOFLAVONE, Method: PREINCUBATION) was “inactive; negative”. The mutagenic call (Test System: AMES SALMONELLA TYPHIMURIUM, Strain/Indicator: TA100, Metabolic Activation: NONE, Method: FLUCTUATION TEST) was “active; positive”, the mutagenic call [2] was “active; positive” and the mutagenic call [5] was “active; positive”. The mutagenic call (Test System: AMES SALMONELLA TYPHIMURIUM, Strain/Indicator: TA100, Metabolic Activation: RAT, LIVER, S-9, AROCLOR 1254, Method: FLUCTUATION TEST) was “active; positive”, the mutagenic call [6] was “active; positive” and the mutagenic call (Test System: AMES SALMONELLA TYPHIMURIUM, Strain/Indicator: TA100, Metabolic Activation: RAT, LIVER, S-9, PHENOBARBITAL AND 5,6-BENZOFLAVONE, Method: PREINCUBATION) was “active; positive”. The mutagenic call (Test System: AMES SALMONELLA TYPHIMURIUM, Strain/Indicator: TA1535, Metabolic Activation: NONE, Method: STANDARD PLATE) was “active; positive” and the mutagenic call (Test System: AMES SALMONELLA TYPHIMURIUM, Strain/Indicator: TA1535, Metabolic Activation: RAT, LIVER, S-9, AROCLOR 1254, Method: STANDARD PLATE) was “active; positive”.

In the case of `O=CN(O)c1ccc(F)cc1`, the mutagenic call [3] is reported as “inactive; negative”, the mutagenic call [4] is reported as “active; positive” and the mutagenic call [5] is reported as “inactive; negative”. For the same molecule, the mutagenic call [6] was “active; positive”.

In the case of `c1ccc(-c2ccccn2)nc1`, the mutagenic call (Test System: AMES SALMONELLA TYPHIMURIUM, Strain/Indicator: TA97, Metabolic Activation: RAT, LIVER, S-9, PHENOBARBITAL, Method: STANDARD PLATE) is reported as “active; positive”, the mutagenic call (Test System: AMES SALMONELLA TYPHIMURIUM, Strain/Indicator: TA98, Metabolic Activation: RAT, LIVER, S-9, PHENOBARBITAL, Method: STANDARD PLATE) is reported as “active; positive” and the mutagenic call (Test System: AMES SALMONELLA TYPHIMURIUM, Strain/Indicator: TA100, Metabolic Activation: RAT, LIVER, S-9, PHENOBARBITAL, Method: STANDARD PLATE) is reported as “active; positive”. For the same molecule, the mutagenic call (Test System: AMES SALMONELLA TYPHIMURIUM, Strain/Indicator: TA1535, Metabolic Activation: RAT, LIVER, S-9, PHENOBARBITAL, Method: STANDARD PLATE) was “inactive; negative”, the mutagenic call (Test System: AMES SALMONELLA TYPHIMURIUM, Strain/Indicator: TA1537, Metabolic Activation: RAT, LIVER, S-9, PHENOBARBITAL, Method: STANDARD PLATE) was “inactive; negative” and the mutagenic call (Test System: AMES SALMONELLA TYPHIMURIUM, Strain/Indicator: TA1538, Metabolic Activation: RAT, LIVER, S-9, PHENOBARBITAL, Method: STANDARD PLATE) was “inactive; negative”.

With `NC(CO)C(=O)O` (stereo not given) the mutagenic call (Test System: AMES SALMONELLA TYPHIMURIUM, Strain/Indicator: TA98, Metabolic Activation: RAT LIVER S-9, CHLOROPHENE, Method: STANDARD PLATE (COMPOUND HEATED AT 250 DEGREES CELSIUS FOR 20 MIN)) was “inactive; negative”.

For `Cc1ccc(N)cc1[N+](=O)[O-]`, the mutagenic call (Test System: AMES SALMONELLA TYPHIMURIUM, Strain/Indicator: TA98, Metabolic Activation: NONE, Method: SUSPENSION/PLATE) was “inactive; negative”, the mutagenic call (Test System: AMES SALMONELLA TYPHIMURIUM, Strain/Indicator: TA98, Metabolic Activation: RAT, LIVER, S-9, KANECHLOR 500, Method: PREINCUBATION) was “active; positive” and the mutagenic call (Test System: AMES SALMONELLA TYPHIMURIUM, Strain/Indicator: TA98, Metabolic Activation: RAT, LIVER, S-9, PCB, Method: PREINCUBATION) was “inactive; negative”. The mutagenic call (Test System: AMES SALMONELLA TYPHIMURIUM, Strain/Indicator: TA98, Metabolic Activation: RAT, LIVER, S-9, PHENOBARBITAL AND 5,6-BENZOFLAVONE, Method: SUSPENSION/PLATE) was “inactive; negative”, the mutagenic call [2] was “active; positive” and the mutagenic call (Test System: AMES SALMONELLA TYPHIMURIUM, Strain/Indicator: TA100, Metabolic Activation: NONE, Method: SUSPENSION/PLATE) was “inactive; negative”. For the same molecule, the mutagenic call (Test System: AMES SALMONELLA TYPHIMURIUM, Strain/Indicator: TA100, Metabolic Activation: RAT, LIVER, S-9, KANECHLOR 500, Method: PREINCUBATION) was “active; positive” and the mutagenic call (Test System: AMES SALMONELLA TYPHIMURIUM, Strain/Indicator: TA100, Metabolic Activation: RAT, LIVER, S-9, PHENOBARBITAL AND 5,6-BENZOFLAVONE, Method: SUSPENSION/PLATE) was “inactive; negative”.

For `CCc1cc(Cc2cc(C)c(N)c(CC)c2)cc(C)c1N`, the mutagenic call [4] was “inactive; negative” and the mutagenic call [6] was “inactive; negative”.

For `O=C1NC(=O)C(Cl)=C1Cl`, the mutagenic call [5] was “active; positive”.

`C1=Cc2cc3cccc4c5ccccc5c5ccc1c2c5c34` was tested, and the mutagenic call (Test System: AMES SALMONELLA TYPHIMURIUM, Strain/Indicator: TA98, Metabolic Activation: RAT, LIVER, S-9, AROCLOR 1254 (0.14 OR 0.41 MG), Method: STANDARD PLATE) was “active; positive”, the mutagenic call (Test System: AMES SALMONELLA TYPHIMURIUM, Strain/Indicator: TA100, Metabolic Activation: RAT, LIVER, S-9, AROCLOR 1254 (0.14 OR 0.41 MG), Method: STANDARD PLATE) was “active; positive” and the mutagenic call (Test System: AMES SALMONELLA TYPHIMURIUM, Strain/Indicator: TA104, Metabolic Activation: RAT, LIVER, S-9, AROCLOR 1254 (0.14 OR 0.41 MG), Method: STANDARD PLATE) was “active; positive”. For the same molecule, the mutagenic call (Test System: AMES SALMONELLA TYPHIMURIUM, Strain/Indicator: TA1535, Metabolic Activation: RAT, LIVER, S-9, AROCLOR 1254 (0.14 OR 0.41 MG), Method: STANDARD PLATE) was “inactive; negative”, the mutagenic call (Test System: AMES SALMONELLA TYPHIMURIUM, Strain/Indicator: TA1537, Metabolic Activation: RAT, LIVER, S-9, AROCLOR 1254 (0.14 OR 0.41 MG), Method: STANDARD PLATE) was “active; positive” and the mutagenic call (Test System: AMES SALMONELLA TYPHIMURIUM, Strain/Indicator: TA1538, Metabolic Activation: RAT, LIVER, S-9, AROCLOR 1254 (0.14 OR 0.41 MG), Method: STANDARD PLATE) was “active; positive”.

With `O=C1NC(=O)[C@H]2[C@H]3C=C[C@@H]([C@@H]12)[C@@H]1[C@H]2C(=O)NC(=O)[C@H]2[C@H]31` the mutagenic call (Test System: MOUSE LYMPHOMA, Strain/Indicator: L5178Y (TK+/TK-), Metabolic Activation: NONE, Method: SUSPENSION/PLATE) was “active; positive. reevaluation of results: inconclusive” and the mutagenic call (Test System: MOUSE LYMPHOMA, Strain/Indicator: L5178Y (TK+/TK-), Metabolic Activation: RAT, LIVER, S-9, AROCLOR 1254, Method: SUSPENSION/PLATE) was “active; positive. reevaluation of results: positive”.

In the case of `Cc1c([N+](=O)[O-])ccc2ccccc12`, the mutagenic call [1] is reported as “active; positive”.
